Laboratory results as given in patent publication US8232401B2 (Japan Tobacco Inc., priority 2002, dated 2012).

molecular target: T1, HIV integrase (Human immunodeficiency virus type 1 group M subtype B, UniProt P12497, F1332H); test: Determination of enzyme (HIV integrase) inhibitory activity (strand transfer, microtiter plate, absorbance at 450 nm); format: biochemical, HIV (Human Immunodeficiency Virus (type 1)); details: recombinant HIV integrase (F185H) expressed in E. coli; donor DNA on streptavidin plate, digoxigenin target DNA; 37° C.
T1 construct: HIV integrase full length gene; made in house; host or cells: Escherichia coli BL21(DE3)

Point of comparison: `COc1cc(Cc2c(F)ccc(Cl)c2F)cc2c(=O)c(C(=O)O)cn(CCO)c12` [Example 3-37, 6-(3-Chloro-2,6-difluorobenzyl)-1-(2-hydroxyethyl)-8-methoxy-4-oxo-1,4-dihydroquinoline-3-carboxylic acid], IC50 11 nM. Against it:
- O=C(O)c1cn(C2CCCC2)c2ccc(Cc3cccc(Cl)c3Cl)cc2c1=O [Example 3-13, 1-Cyclopentyl-6-(2,3-dichlorobenzyl)-4-oxo-1,4-dihydroquinoline-3-carboxylic acid] — 2.6-fold higher, 29 nM
- COc1cc(Cc2cccc(Cl)c2Cl)cc2c(=O)c(C(=O)O)cn(CCO)c12 [Example 3-14, 6-(2,3-Dichlorobenzyl)-1-(2-hydroxyethyl)-8-methoxy-4-oxo-1,4-dihydroquinoline-3-carboxylic acid] — within 1.5-fold, 14 nM
- O=C(O)c1cn(CCO)c2ccc(Cc3ccc(F)c(Cl)c3F)cc2c1=O [Example 3-17, 6-(3-Chloro-2,4-difluorobenzyl)-1-(2-hydroxyethyl)-4-oxo-1,4-dihydroquinoline-3-carboxylic acid] — within 1.5-fold, 13 nM
- CCOc1cc2c(cc1Cc1cccc(Cl)c1Cl)c(=O)c(C(=O)O)cn2CCO [Example 3-20, 6-(2,3-Dichlorobenzyl)-7-ethoxy-1-(2-hydroxyethyl)-4-oxo-1,4-dihydroquinoline-3-carboxylic acid] — within 1.5-fold, 10 nM
- O=C(O)c1cn(CCO)c2cc(Cl)c(Cc3cccc(Cl)c3Cl)cc2c1=O [Example 3-21, 7-Chloro-6-(2,3-dichlorobenzyl)-1-(2-hydroxyethyl)-4-oxo-1,4-dihydroquinoline-3-carboxylic acid] — 2.7-fold higher, 30 nM
- O=C(O)c1cn(CCO)c2cc(C(F)(F)F)c(Cc3cccc(Cl)c3Cl)cc2c1=O [Example 3-22, 6-(2,3-Dichlorobenzyl)-1-(2-hydroxyethyl)-4-oxo-7-trifluoromethyl-1,4-dihydroquinoline-3-carboxylic acid] — 72-fold higher, 790 nM
- C[C@@H](CO)n1cc(C(=O)O)c(=O)c2cc(Cc3cccc(Cl)c3F)ccc21 [Example 3-23, (S)-6-(3-Chloro-2-fluorobenzyl)-1-(2-hydroxy-1-methylethyl)-4-oxo-1,4-dihydroquinoline-3-carboxylic acid] — 1.5-fold lower, 7.2 nM
- C[C@H](CO)n1cc(C(=O)O)c(=O)c2cc(Cc3cccc(Cl)c3F)ccc21 [Example 3-24, (R)-6-(3-Chloro-2-fluorobenzyl)-1-(2-hydroxy-1-methylethyl)-4-oxo-1,4-dihydroquinoline-3-carboxylic acid] — 3.5-fold higher, 39 nM
- O=C(O)c1cn(CCO)c2c(C(F)(F)F)cc(Cc3cccc(Cl)c3F)cc2c1=O [Example 3-25, 6-(3-Chloro-2-fluorobenzyl)-1-(2-hydroxyethyl)-4-oxo-8-trifluoromethyl-1,4-dihydroquinoline-3-carboxylic acid] — 6.3-fold higher, 69 nM
- O=C(O)c1cn(C(CO)CO)c2ccc(Cc3cccc(Cl)c3F)cc2c1=O [Example 3-26, 6-(3-Chloro-2-fluorobenzyl)-1-[2-hydroxy-1-(hydroxymethyl)ethyl]-4-oxo-1,4-dihydroquinoline-3-carboxylic acid] — the same, 11 nM
- N#Cc1cc2c(cc1Cc1cccc(Cl)c1Cl)c(=O)c(C(=O)O)cn2CCO [Example 3-27, 7-Cyano-6-(2,3-dichlorobenzyl)-1-(2-hydroxyethyl)-4-oxo-1,4-dihydroquinoline-3-carboxylic acid] — 6.8-fold higher, 75 nM
- CC(C)(C)n1cc(C(=O)O)c(=O)c2cc(Cc3cccc(Cl)c3F)ccc21 [Example 3-33, 1-tert-Butyl-6-(3-Chloro-2-fluorobenzyl)-4-oxo-1,4-dihydroquinoline-3-carboxylic acid] — within 1.5-fold, 8.7 nM
- COc1cc(Cc2cccc(Cl)c2F)cc2c(=O)c(C(=O)O)cn(CCO)c12 [Example 3-34, 6-(3-Chloro-2-fluorobenzyl)-1-(2-hydroxyethyl)-8-methoxy-4-oxo-1,4-dihydroquinoline-3-carboxylic acid] — the same, 11 nM
- Nc1cc(Cc2cccc(Cl)c2F)cc2c(=O)c(C(=O)O)cn(CCO)c12 [Example 3-35, 8-Amino-6-(3-chloro-2-fluorobenzyl)-1-(2-hydroxyethyl)-4-oxo-1,4-dihydroquinoline-3-carboxylic acid] — the same, 11 nM
- O=C(O)c1cc2c(cc1Cc1cccc(Cl)c1Cl)c(=O)c(C(=O)O)cn2CCO [Example 3-36, 7-Carboxy-6-(2,3-dichlorobenzyl)-1-(2-hydroxyethyl)-4-oxo-1,4-dihydroquinoline-3-carboxylic acid] — 4.6-fold higher, 51 nM
- CN(C)c1cc(Cc2cccc(Cl)c2F)cc2c(=O)c(C(=O)O)cn(CCO)c12 [Example 3-38, 6-(3-Chloro-2-fluorobenzyl)-8-dimethylamino-(2-hydroxyethyl)-4-oxo-1,4-dihydroquinoline-3-carboxylic acid] — within 1.5-fold, 15 nM
- CC(=O)Nc1cc(Cc2cccc(Cl)c2F)cc2c(=O)c(C(=O)O)cn(CCO)c12 [Example 3-39, 8-Acetylamino-6-(3-chloro-2-fluorobenzyl)-1-(2-hydroxyethyl)-4-oxo-1,4-dihydroquinoline-3-carboxylic acid] — 4.5-fold higher, 49 nM
- CCN(CC)c1ccccc1Cc1ccc2c(c1)c(=O)c(C(=O)O)cn2CCO [Example 3-42, 6-(2-Diethylaminobenzyl)-1-(2-hydroxyethyl)-4-oxo-1,4-dihydroquinoline-3-carboxylic acid] — 65-fold higher, 720 nM
- CC(C)(CO)n1cc(C(=O)O)c(=O)c2cc(Cc3cccc(Cl)c3F)ccc21 [Example 3-43, 6-(3-Chloro-2-fluorobenzyl)-1-(1,1-dimethyl-2-hydroxyethyl)-4-oxo-1,4-dihydroquinoline-3-carboxylic acid] — 1.6-fold higher, 18 nM
- CCOc1cc2c(cc1Cc1cccc(Cl)c1F)c(=O)c(C(=O)O)cn2CCO [Example 3-44, 6-(3-Chloro-2-fluorobenzyl)-7-ethoxy-1-(2-hydroxyethyl)-4-oxo-1,4-dihydroquinoline-3-carboxylic acid] — within 1.5-fold, 9.6 nM
- COc1c(Cc2cccc(Cl)c2F)cc2c(=O)c(C(=O)O)cn(CCO)c2c1OC [Example 3-45, 6-(3-Chloro-2-fluorobenzyl)-7,8-dimethoxy-1-(2-hydroxyethyl)-4-oxo-1,4-dihydroquinoline-3-carboxylic acid] — within 1.5-fold, 15 nM
- CCOc1cc(Cc2cccc(Cl)c2F)cc2c(=O)c(C(=O)O)cn(CCO)c12 [Example 3-47, 6-(3-Chloro-2-fluorobenzyl)-8-ethoxy-1-(2-hydroxyethyl)-4-oxo-1,4-dihydroquinoline-3-carboxylic acid] — within 1.5-fold, 8.6 nM
- CNc1cc(Cc2cccc(Cl)c2F)cc2c(=O)c(C(=O)O)cn(CCO)c12 [Example 3-48, 6-(3-Chloro-2-fluorobenzyl)-1-(2-hydroxyethyl)-8-methylamino-4-oxo-1,4-dihydroquinoline-3-carboxylic acid] — 1.9-fold higher, 21 nM
- CCCOc1cc2c(cc1Cc1cccc(Cl)c1F)c(=O)c(C(=O)O)cn2CCO [Example 3-49, 6-(3-Chloro-2-fluorobenzyl)-1-(2-hydroxyethyl)-4-oxo-7-propyloxy-1,4-dihydroquinoline-3-carboxylic acid] — within 1.5-fold, 7.9 nM
- CN(C)/C=N/c1cc2c(cc1Cc1cccc(Cl)c1F)c(=O)c(C(=O)O)cn2CCO [Example 3-50, 6-(3-Chloro-2-fluorobenzyl)-7-(dimethylaminomethyleneamino)-1-(2-hydroxyethyl)-4-oxo-1,4-dihydroquinoline-3-carboxylic acid] — 1.6-fold higher, 18 nM
- O=C(O)c1cn(CCO)c2c(Oc3ccccc3)cc(Cc3cccc(Cl)c3F)cc2c1=O [Example 3-52, 6-(3-Chloro-2-fluorobenzyl)-1-(2-hydroxyethyl)-4-oxo-8-phenoxy-1,4-dihydroquinoline-3-carboxylic acid] — within 1.5-fold, 12 nM
- CC(C)Oc1cc2c(cc1Cc1cccc(Cl)c1F)c(=O)c(C(=O)O)cn2CCO [Example 3-53, 6-(3-Chloro-2-fluorobenzyl)-1-(2-hydroxyethyl)-7-isopropyloxy-4-oxo-1,4-dihydroquinoline-3-carboxylic acid] — within 1.5-fold, 7.9 nM
- CCCNc1cc(Cc2cccc(Cl)c2F)cc2c(=O)c(C(=O)O)cn(CCO)c12 [Example 3-54, 6-(3-Chloro-2-fluorobenzyl)-1-(2-hydroxyethyl)-4-oxo-8-propylamino-1,4-dihydroquinoline-3-carboxylic acid] — 1.7-fold lower, 6.4 nM
- CCNc1cc(Cc2cccc(Cl)c2F)cc2c(=O)c(C(=O)O)cn(CCO)c12 [Example 3-55, 6-(3-Chloro-2-fluorobenzyl)-8-ethylamino-1-(2-hydroxyethyl)-4-oxo-1,4-dihydroquinoline-3-carboxylic acid] — within 1.5-fold, 8.7 nM
- COc1cc(Cc2cccc(Cl)c2F)cc2c(=O)c(C(=O)O)cn([C@@H](C)CO)c12 [Example 3-56, (S)-6-(3-Chloro-2-fluorobenzyl)-1-(2-hydroxy-1-methylethyl)-8-methoxy-4-oxo-1,4-dihydroquinoline-3-carboxylic acid] — within 1.5-fold, 12 nM
- COc1cc(Cc2c(F)ccc(Cl)c2F)cc2c(=O)c(C(=O)O)cn([C@@H](C)CO)c12 [Example 3-57, (S)-6-(3-Chloro-2,6-difluorobenzyl)-1-(2-hydroxy-1-methylethyl)-8-methoxy-4-oxo-1,4-dihydroquinoline-3-carboxylic acid] — within 1.5-fold, 15 nM
- CCCOc1cc(Cc2cccc(Cl)c2F)cc2c(=O)c(C(=O)O)cn(CCO)c12 [Example 3-58, 6-(3-Chloro-2-fluorobenzyl)-1-(2-hydroxyethyl)-4-oxo-8-propyloxy-1,4-dihydroquinoline-3-carboxylic acid] — within 1.5-fold, 8 nM
- CC(C)Oc1cc(Cc2cccc(Cl)c2F)cc2c(=O)c(C(=O)O)cn(CCO)c12 [Example 3-59, 6-(3-Chloro-2-fluorobenzyl)-1-(2-hydroxyethyl)-8-isopropyloxy-4-oxo-1,4-dihydroquinoline-3-carboxylic acid] — within 1.5-fold, 8 nM
- CC[C@@H](CO)n1cc(C(=O)O)c(=O)c2cc(Cc3cccc(Cl)c3F)ccc21 [Example 3-60, (S)-6-(3-Chloro-2-fluorobenzyl)-1-[1-(hydroxymethyl)propyl]-4-oxo-1,4-dihydroquinoline-3-carboxylic acid] — 2-fold lower, 5.5 nM
